According to patent publication US20030060499A1, “Novel therapeutic method” (priority 1998, published 2003):
Where a name gives a salt, the structure may show the parent alone.

Columns and labels:
[1] = test system: putamen dopaminergic function; test: 18 Fluoro-dopa PET scanning in five year, double-blind, multicentre study of ropinirole versus levodopa; type: in vivo, human; conditions: for loss of putamen dopaminergic function (mean percent change): all patients (Hoehn & Yahr I-III), approximately two years between scans, average of both sides of the brain; for loss of putamen dopaminergic function (mean percent change) / decrease in putamen dopaminergic function (mean percent change): 18 Fluoro-dopa PET; for decrease in putamen dopaminergic function (mean percent change): subgroup of patients with Parkinson's disease for less than 2 years
Description: In an ongoing five year, double-blind, multicentre study, patients with early Pakinson's disease (Hoehn & Yahr I-III) were randomised to receive either ropinirole or levodopa. Of those enrolled, 37 patients were scanned using 18 Fluoro-dopa PET scanning within the first year and then approximately two years later to measure the gradual decline in basal ganglia dopaminergic function. […] The following endpoints were assessed:
1 Mean percent change in putamen dopaminergic function in all patients (Hoehn & Yahr I-III)
2 Mean percent change in putamen dopaminergic function in Parkinson's disease patients with symptoms present for under two years
3 Mean percent change in putamen dopaminergic function in Parkinson's disease patients with symptoms present for more than two years

[2] = test system: Parkinson's patients; test: three year, international, multicentre, double-blind comparative clinical trial of ropinirole versus bromocriptine; type: in vivo, human; conditions: for patients considered responders (at least a 30% reduction from baseline in total motor examination score on the UPDRS): at the study's completion; for mean improvement in UPDRS motor score: three years
Description: In a three year, international, multicentre, double-blind comparative clinical trial, Parkinson's patients were randomised to receive either ropinirole (n=168) or bromocriptine (n=167). 33% of patients received selegiline concomitantly with either ropinirole or bromocriptine. Of those enrolled, 214 patients completed the study (approximately 39% of patients treated with ropinirole and 33% of patients treated with bromocriptine withdrew from the study). Efficacy was based on the following:
1 Mean Unified Parkinson's Disease Rating Scale (UPDRS) Activities of Daily Living (ADL) score (Part II) at completion
2 Improvement in UPDRS total motor examination score (Part III)
3 Percentage of patients who were considered responders, defined as those with at least a 30% reduction from baseline in total motor examination score on the UPDRS
4 Average combined ADL and motor score at endpoint
5 The percentage of patients who required supplemental levodopa therapy.

[3] = patients who completed the study

Row | SMILES | loss of putamen dopaminergic function (mean percent change) [1] | decrease in putamen dopaminergic function (mean percent change) [1] | patients considered responders (at least a 30% reduction from baseline in total motor examination score on the UPDRS) [2] | mean improvement in UPDRS motor score [2, 3] | incidence of dyskinesias ([2]; three year trial) | patients who required supplemental levodopa ([2]; three year trial) | average improvement in the combined ADL and motor scores versus bromocriptine ([2]; at endpoint, p=0.018) | incidence of dyskinesias ([2]; human, in vivo, 3 years) | mean improvement in UPDRS ADL score versus bromocriptine ([2]; patients who completed the study, p=0.009) | difference between treatment groups in change in putamen dopaminergic function ([1]; patients with Parkinson's disease for more than two years, ropinirole versus levodopa)
1 | N[C@@H](Cc1ccc(O)c(O)c1)C(=O)O [levodopa] | 18% | 28% | – | – | – | – | – | – | – | –
2 | CC(C)C[C@H]1C(=O)N2CCC[C@H]2[C@]2(O)O[C@](NC(=O)[C@@H]3C=C4c5cccc6[nH]c(Br)c(c56)C[C@H]4N(C)C3)(C(C)C)C(=O)N12 [bromocriptine] | – | – | 42% | 22% | 7% | 42% | – | – | – | –
3 | CCCN(CCC)CCc1cccc2c1CC(=O)N2 [ropinirole, 4-[2-(di-n-propylamino)ethyl]-1,3-dihydro-2H-indolin-2-one hydrochlorid] | 13% | 14% | 53% | 31% | – | 34% | statistically significantly greater | 8% | statistically significantly mean improvement | no statistically significant difference
